These results are taken from US7868185B2, “Shp-2 inhibitors and pharmaceutical compositions comprising them” (Max-Delbruck-Centrum fur Molekulare Medizin, priority 2005, dated 2011).

The target of one experiment is Met (Homo sapiens, UniProt P08581). The settings on record: in vitro; cited from earlier work.
In another experiment the test system is HGF induced scattering. The conditions noted are these: in vitro; cited from earlier work.
The conditions of experiment [1]: earlier experiments; cited from earlier work.
Experiment [2] relates to phosphorylation of MAP kinases Erk1 and Erk2. The experiment is described as follows: HGF/SF phosphorylation assay (MDCK). It is filed as cell-based, canine. The settings on record: MDCK cells, HGF/SF stimulation, 5, 10, 20 μM, dose dependant. How it is done:
MDCK cells are seeded at 0.15×10E6 cells/ml (1 ml/well) in a 12 well microtiter plate in DMEM/10% FBS and incubated over night at 37° C./5% CO2. Medium is exchanged against DMEM/1% FBS plus 5, 10 or 20 μM (final concentration) compound, and the cells are incubated for 16 h at 37° C./5% CO2. Medium is exchanged against DMEM (without serum) plus 5, 10 or 20 μM compound (final DMSO concentration less than 1%), and the cells are incubated for 2 h at 37° C./5% CO2. Medium is exchanged against DMEM (without serum) plus 5, 10 or 20 μM compound (final DMSO concentration less than 1%) plus 10 ng/ml HGF/SF, and the cells are incubated for 6 h at 37° C./5% CO2. […] Proteins on the blot are analyzed by antibodies against p42/p44 MAP kinase (Erk1/Erk2) (Cell Signaling Technology, Inc., Beverly, USA) and phospho-Erk1/Erk2 (Cell Signaling Technology, Inc., Beverly, USA).
The binding of the antibodies to the MAP kinases on the nitrocellulose was detected by incubation with secondary goat-anti-rabbit-antibodies coupled to horse radish peroxidase (Jackson ImmunoResearch Laboratories, Soham, UK) and subsequent reaction with ECL reagents (Western Lightning™, PerkinElmer Life Sciences, Inc. Boston, USA) and X-ray film exposure (X-OMAT™, Kodak GmbH, Stuttgart, Germany). […]

Experiment [3] has the same test system. Kind of experiment: HGF/SF phosphorylation assay (NCI-H661). The experiment is classed as cell-based, human. The conditions noted are these: NCI-H661 cells (N58S in SHP2/PTPN11), HGF/SF stimulation, dose dependant. On the procedure: Typically, human tumor cells (e.g. NCI-H661) were seeded at 0.25×10E6 cells/ml (1 ml/well) in a 6 well microtiter plate in RPMI/10% FBS and incubated over night at 37° C./5% CO2. Medium is exchanged against RPMI/1% FBS plus 5, 10 or 20 μM (final concentration) compound, and the cells were incubated for 20 h at 37° C./5% CO2. Medium was exchanged against RPMI (without serum) plus 5, 10 or 20 μM compound (final DMSO concentration less than 1%), and the cells were incubated for 4 h at 37° C./5% CO2. Medium was exchanged against DMEM (without serum) plus 5, 10 or 20 μM compound (final DMSO concentration less than 1%) plus 10 ng/ml HGF/SF, and the cells were incubated for 4 h at 37° C./5% CO2. […] Proteins on the blot were analyzed by antibodies against p42/p44 MAP kinase (Erk1/Erk2) (Cell Signaling Technology, Inc., Beverly, USA) and phospho-Erk1/Erk2 (Cell Signaling, Technology, Inc., Beverly, USA). The binding of the antibodies to the MAP kinases on the nitrocellulose was detected by incubation with secondary goat-anti-rabbit-antibodies coupled to horse radish peroxidase (Jackson ImmunoResearch Laboratories, Soham, UK) and subsequent reaction with ECL reagents (Western Lightning™, PerkinElmer Life Sciences, Inc. Boston, USA) and X-ray film exposure (X-OMAT™, Kodak GmbH, Stuttgart, Germany).

Structures are written as SMILES.

Met, sequence (P08581 25-1390): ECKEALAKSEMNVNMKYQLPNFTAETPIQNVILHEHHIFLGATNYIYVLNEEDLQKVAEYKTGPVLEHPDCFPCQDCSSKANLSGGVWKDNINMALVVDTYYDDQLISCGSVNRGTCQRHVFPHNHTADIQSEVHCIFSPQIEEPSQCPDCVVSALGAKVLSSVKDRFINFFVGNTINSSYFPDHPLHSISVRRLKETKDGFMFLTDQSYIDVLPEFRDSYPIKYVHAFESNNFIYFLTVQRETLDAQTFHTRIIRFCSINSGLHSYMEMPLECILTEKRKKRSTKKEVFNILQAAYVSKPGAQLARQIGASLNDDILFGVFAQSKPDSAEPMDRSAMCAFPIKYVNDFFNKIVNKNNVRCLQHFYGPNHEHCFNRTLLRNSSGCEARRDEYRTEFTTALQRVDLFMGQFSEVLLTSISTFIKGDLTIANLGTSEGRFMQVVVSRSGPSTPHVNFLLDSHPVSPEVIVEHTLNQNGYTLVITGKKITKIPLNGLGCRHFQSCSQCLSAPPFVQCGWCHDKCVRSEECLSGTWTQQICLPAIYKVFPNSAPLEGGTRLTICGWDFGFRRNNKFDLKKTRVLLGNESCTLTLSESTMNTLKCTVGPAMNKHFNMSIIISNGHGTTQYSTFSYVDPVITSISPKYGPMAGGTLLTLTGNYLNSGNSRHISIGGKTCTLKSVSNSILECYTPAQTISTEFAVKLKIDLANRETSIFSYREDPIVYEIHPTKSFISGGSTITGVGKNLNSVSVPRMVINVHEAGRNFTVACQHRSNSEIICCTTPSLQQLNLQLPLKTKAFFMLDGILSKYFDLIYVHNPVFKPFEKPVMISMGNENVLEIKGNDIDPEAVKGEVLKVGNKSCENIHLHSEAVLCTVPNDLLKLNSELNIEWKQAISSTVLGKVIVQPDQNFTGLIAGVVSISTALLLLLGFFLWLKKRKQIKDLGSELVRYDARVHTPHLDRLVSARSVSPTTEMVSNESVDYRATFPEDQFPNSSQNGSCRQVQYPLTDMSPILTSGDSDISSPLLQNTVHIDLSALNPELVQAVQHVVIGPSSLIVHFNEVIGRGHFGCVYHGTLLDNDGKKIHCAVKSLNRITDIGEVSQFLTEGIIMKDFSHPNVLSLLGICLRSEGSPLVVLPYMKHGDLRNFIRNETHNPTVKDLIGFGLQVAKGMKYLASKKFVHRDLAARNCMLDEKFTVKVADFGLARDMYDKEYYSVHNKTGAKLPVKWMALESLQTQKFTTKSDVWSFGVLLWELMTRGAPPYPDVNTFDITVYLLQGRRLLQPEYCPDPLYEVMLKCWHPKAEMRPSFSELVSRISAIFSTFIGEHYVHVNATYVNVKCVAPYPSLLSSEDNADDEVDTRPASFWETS

Turning to `COC(=O)[C@@]1(O)C[C@H]2O[C@]1(C)n1c3ccccc3c3c4c(c5c6ccccc6n2c5c31)C(=O)NC4` [Compound K252a], the Met autophosphorylation result on Met is reported as “inhibits”. The HGF induced scattering entry with HGF induced scattering is “inhibits”. Further, in experiment [1], the “antitumor activity in vivo” value is “no antitumor activity”.
Regarding `O=C1/C(=N\Nc2ccc(S(=O)(=O)O)cc2)C(c2ccc([N+](=O)[O-])cc2)=NN1c1ccccc1` [II-1, 4-(2-(3-(4-nitrophenyl)-5-oxo-1-phenyl-1,5-dihydro-4H-pyrazol-4-ylidene)hydrazino)-benzenesulfonic acid], the “sustained MAP kinase phosphorylation (P-Erk1/Erk1)” value in experiment [2] is given as “inhibited”. Besides, the “sustained MAP kinase phosphorylation” value in experiment [3] was “inhibited”.
